Laboratory results as given in US20070049564A1 (Wyeth, priority 2005, published 2007).
Values after ≈ are worked out from the molar mass of the structure shown. Like-named read-outs stand apart in the source and are kept apart here.

Legend:
[1] = tested on: S. aureus GC 6335; assay: MIC, broth microdilution; settings: Staphylococcus aureus, GC6335, S. aureus GC 6335
[2] = tested on: E. coli GC 2235; assay: MIC, broth microdilution; settings: Escherichia coli, GC2235, E. coli GC 2235
[3] = tested on: E. coli GC 2233; assay: MIC, broth microdilution; settings: Escherichia coli, GC2233, E. coli GC 2233
[4] = tested on: S. typhimurium GC 2172; assay: MIC, broth microdilution; settings: Salmonella enterica, TYPHIMURIUM, S. typhimurium GC 2172
[5] = tested on: E. faecium GC 2243; assay: MIC, broth microdilution; settings: Enterococcus faecium, GC2243, E. faecium GC 2243
[6] = tested on: S. agalactiae GC 4564; assay: MIC, broth microdilution; settings: Streptococcus agalactiae, GC4564, S. agalactiae GC 4564
[7] = tested on: E. faecium GC 4556; assay: MIC, broth microdilution; settings: Enterococcus faecium, GC4556, E. faecium GC 4556
[8] = tested on: Staph.; assay: Range of MIC for Staph. strains, including MRSA; settings: Staphylococcus aureus, MRSA
[9] = tested on: E. faecalis GC 2265; assay: MIC, broth microdilution; settings: Enterococcus faecalis, GC2265, E. faecalis GC 2265
[10] = tested on: S. pyogenes GC 4563; assay: MIC, broth microdilution; settings: Streptococcus pyogenes, GC4563, S. pyogenes GC 4563
Description: Antimicrobial susceptibility testing. The in vitro activities of the antibiotics are determined by the broth microdilution method as recommended by the National Committee for Clinical Laboratory Standards (NCCLS) (1). Mueller-Hinton II broth (MHBII)(BBL Cockeysville, Md.) is the medium employed in the testing procedures. Microtiter plates containing serial dilutions of each antimicrobial agent are inoculated with each organism to yield the appropriate density (10^5 CFU/ml) in a 100 μl final volume. The plates are incubated for 18-22 hours at 35° C. in ambient air. […] Standard Pharmacological Test Procedures
Presented in Tables I-XIII are representative compounds of Formula I which were evaluated against a panel of 40 selected gram-positive and gram-negative bacteria strains by pre-incubation in water, mouse serum or human serum. Representative compounds were first incubated in mouse serum for an hour prior to the in vitro testing against a panel of selected gram-positive and gram-negative bacteria strains. All compounds were also pre-incubated in water for an hour prior to testing as control. Representative compounds of Formula I were incubated in human serum prior to MIC determination.

[11] = tested on: E. faecalis GC 4555; assay: MIC, broth microdilution; settings: Enterococcus faecalis, GC4555, E. faecalis GC 4555
[12] = tested on: S. aureus GC 6469; assay: MIC, broth microdilution; settings: Staphylococcus aureus, GC6469, S. aureus GC 6469
[13] = tested on: E. coli GC 3226; assay: MIC, broth microdilution; settings: Escherichia coli, GC3226, E. coli GC 3226
[14] = tested on: E. coli GC 1073; assay: MIC, broth microdilution; settings: Escherichia coli, GC1073, E. coli GC 1073
[15] = tested on: E. coli GC 2236; assay: MIC, broth microdilution; settings: Escherichia coli, GC2236, E. coli GC 2236
[16] = tested on: E. coli GC 2270; assay: MIC, broth microdilution; settings: Escherichia coli, GC2270, E. coli GC 2270
[17] = tested on: c. albicans GC 3066; assay: MIC, broth microdilution
[18] = tested on: S. aureus GC 1079; assay: MIC, broth microdilution; settings: Staphylococcus aureus, GC1079, S. aureus GC 1079
[19] = tested on: E. coli; assay: Range of MIC for E. coli strains; settings: Escherichia coli
Description: Antimicrobial susceptibility testing. The in vitro activities of the antibiotics are determined by the broth microdilution method as recommended by the National Committee for Clinical Laboratory Standards (NCCLS) (1). Mueller-Hinton II broth (MHBII)(BBL Cockeysville, Md.) is the medium employed in the testing procedures. Microtiter plates containing serial dilutions of each antimicrobial agent are inoculated with each organism to yield the appropriate density (10^5 CFU/ml) in a 100 μl final volume. The plates are incubated for 18-22 hours at 35° C. in ambient air.
Representative compounds were first incubated in mouse serum for an hour prior to the in vitro testing against a panel of selected gram-positive and gram-negative bacteria strains. All compounds were also pre-incubated in water for an hour prior to testing as control. Representative compounds of Formula I were incubated in human serum prior to MIC determination.

[20] = tested on: E. coli GC 2271; assay: MIC, broth microdilution; settings: Escherichia coli, GC2271, E. coli GC 2271

CCCN(CC(=O)Nc1cc(N(C)C)c2c(c1O)C(=O)C1=C(O)[C@]3(O)C(=O)C(C(N)=O)=C(O)[C@@H](N(C)C)[C@@H]3C[C@@H]1C2)C(=O)OCOC(=O)C(C)C [Example 10, ({[(2-{[(5aR,6aS,7S,10aS)-9-(aminocarbonyl)-4,7-bis(dimethylamino)-1,8,10a,11-tetrahydroxy-10,12-dioxo-5,5a,6,6a,7,10,10a,12-octahydrotetracen-2-yl]amino}-2-oxoethyl)(propyl)amino]carbonyl}oxy)methyl 2-methylpropanoate] was tested, and the MIC ([1]; Mouse Serum pre-incubation) was 0.25 µg/mL (≈ 0.349 µM), the MIC ([1]; Water pre-incubation) was 0.5 µg/mL (≈ 0.699 µM) and the MIC ([2]; Mouse Serum pre-incubation) was 0.25 µg/mL (≈ 0.349 µM). For the same molecule, the MIC ([2]; Water pre-incubation) was 4 µg/mL (≈ 5.59 µM), the MIC ([3]; Mouse Serum pre-incubation) was 0.5 µg/mL (≈ 0.699 µM) and the MIC ([3]; Water pre-incubation) was 8 µg/mL (≈ 11.2 µM). For the same molecule, the MIC ([4]; Mouse Serum pre-incubation) was 4 µg/mL (≈ 5.59 µM), the MIC ([4]; Water pre-incubation) was > 64 µg/mL and the MIC ([5]; Mouse Serum pre-incubation) was < 0.06 µg/mL. The MIC ([5]; Water pre-incubation) was 0.12 µg/mL (≈ 0.168 µM), the MIC ([6]; Mouse Serum pre-incubation) was < 0.06 µg/mL and the MIC ([6]; Water pre-incubation) was 0.12 µg/mL (≈ 0.168 µM). It also gave an MIC ([7]; Mouse Serum pre-incubation) of 0.25 µg/mL (≈ 0.349 µM), an MIC ([7]; Water pre-incubation) of 0.5 µg/mL (≈ 0.699 µM) and an MIC ([8]; read-out: Range of MIC, Staph (Mouse Serum)) of 0.25 to 2 µg/mL (≈ 0.349 to 2.79 µM). The MIC ([8]; read-out: Range of MIC, Staph (Water)) was 0.12 to 2 µg/mL (≈ 0.168 to 2.79 µM), the MIC ([8]; read-out: Range of MIC, Staph. (mouse serum)) was 0.25 to 2 µg/mL (≈ 0.349 to 2.79 µM) and the MIC ([8]; read-out: Range of MIC, Staph. (water)) was 0.12 to 2 µg/mL (≈ 0.168 to 2.79 µM). For the same molecule, the MIC ([9]; Mouse Serum pre-incubation) was 1 µg/mL (≈ 1.4 µM), the MIC ([9]; Water pre-incubation) was 1 µg/mL (≈ 1.4 µM) and the MIC ([10]; Mouse Serum pre-incubation) was < 0.06 µg/mL. The MIC ([10]; Water pre-incubation) was < 0.06 µg/mL, the MIC ([11]; Mouse Serum pre-incubation) was 0.5 µg/mL (≈ 0.699 µM) and the MIC ([11]; Water pre-incubation) was 1 µg/mL (≈ 1.4 µM). The MIC ([12]; Mouse Serum pre-incubation) was 1 µg/mL (≈ 1.4 µM), the MIC ([12]; Water pre-incubation) was 2 µg/mL (≈ 2.79 µM) and the MIC ([13]; Mouse Serum pre-incubation) was 0.5 µg/mL (≈ 0.699 µM). The MIC ([13]; Water pre-incubation) was 16 µg/mL (≈ 22.4 µM), the MIC ([14]; Mouse Serum pre-incubation) was 0.5 µg/mL (≈ 0.699 µM) and the MIC ([14]; Water pre-incubation) was 16 µg/mL (≈ 22.4 µM). It also gave an MIC ([15]; Mouse Serum pre-incubation) of 0.5 µg/mL (≈ 0.699 µM), an MIC ([15]; Water pre-incubation) of 8 µg/mL (≈ 11.2 µM) and an MIC ([16]; Mouse Serum pre-incubation) of 0.5 µg/mL (≈ 0.699 µM). For the same molecule, the MIC ([16]; Water pre-incubation) was 8 µg/mL (≈ 11.2 µM), the MIC ([17]; Candida albicans, GC3066) was > 64 µg/mL and the MIC ([17]; c. albicans GC 3066, Water pre-incubation) was >64 UG/ML. For the same molecule, the MIC ([18]; Mouse Serum pre-incubation) was 0.5 µg/mL (≈ 0.699 µM), the MIC ([18]; Water pre-incubation) was 1 µg/mL (≈ 1.4 µM) and the MIC ([19]; 20 h, read-out: Range of MIC, E. coli (Mouse Serum)) was 0.25 to 2 µg/mL (≈ 0.349 to 2.79 µM). It also gave an MIC ([19]; read-out: Range of MIC, E. coli (Water)) of 4 to 32 µg/mL (≈ 5.59 to 44.7 µM), an MIC ([19]; read-out: Range of MIC, E. coli (mouse serum)) of 0.25 to 2 µg/mL (≈ 0.349 to 2.79 µM) and an MIC ([19]; read-out: Range of MIC, E. coli (water)) of 4 to 32 µg/mL (≈ 5.59 to 44.7 µM). It also gave an MIC ([20]; Mouse Serum pre-incubation) of 0.25 µg/mL (≈ 0.349 µM) and an MIC ([20]; Water pre-incubation) of 8 µg/mL (≈ 11.2 µM).
